“And” between values parts separate entries of the source, which are not always exact repeats. Equal entries are not always repeated.
Experiments:
Format in all cases: functional
[1] = test system: Mus musculus; assay: Time of recovery of righting reflux (RRT) in seconds was measured after oral administration of 3 mg/kg in mice for the promotional effect on recovery from coma.
[2] = test system: Mus musculus; assay: Time of recovery of righting reflux (RRT) in seconds was measured after oral administration of 30 mg/kg in mice for the promotional effect on recovery from coma.
[3] = test system: Mus musculus; assay: Time of recovery of righting reflux (RRT) in seconds was measured after oral administration of 1 mg/kg in mice for the promotional effect on recovery from coma.
[4] = test system: Mus musculus; assay: Compound was tested for the anesthetic effect and the sleeping time (ST) was recorded at a dose of 3 mg/kg administered subcutaneously.; conditions: route subcutaneous
[5] = test system: Mus musculus; assay: Antihypoxic effect by the ratio of survival time (SVT) of test mice to that of control group at a dose of 10 mg/kg administered intraperitoneally.; conditions: route intraperitoneal
[6] = test system: Mus musculus; assay: Time of recovery of spontaneous movement (SMT) in seconds was measured after administration of 3 mg/kg orally in mice for the promotional effect on recovery from coma.; conditions: route oral
[7] = test system: Mus musculus; assay: Time of recovery of righting reflux (RRT) in seconds was measured after oral administration of 10 mg/kg in mice for the promotional effect on recovery from coma.
[8] = test system: Mus musculus; assay: Antihypoxic effect by the ratio of survival time (SVT) of test mice to that of control group at a dose of 30 mg/kg administered subcutaneously.; conditions: route subcutaneous
[9] = test system: Mus musculus; assay: Spontaneous movement (SMT) in seconds, was measured after oral administration of 30 mg/kg in mice to test for promoting effects on recovery from coma.
[10] = test system: Mus musculus; assay: Antihypoxic effect tested by the ratio of survival time (SVT) of test mice to that of control group, dosed orally 30 mg/kg; conditions: route oral
[11] = test system: Mus musculus; assay: Time of recovery of spontaneous movement (SMT) in seconds was measured after administration of 1 mg/kg orally in mice for the promotional effect on recovery from coma.; conditions: route oral
[12] = test system: Mus musculus; assay: Antihypoxic effect by the survival time (SVT) in mice at a dose of 3 mg/kg administered intraperitoneally.; conditions: route intraperitoneal
[13] = test system: Mus musculus; assay: Antihypoxic effect tested by the ratio of survival time (SVT) of test mice to that of control group, dosed intraperitoneally at 30 mg/kg; conditions: route intraperitoneal
[14] = test system: Mus musculus; assay: Time of recovery of spontaneous movement (SMT) in seconds was measured after administration of 10 mg/kg orally in mice for the promotional effect on recovery from coma.; conditions: route oral
[15] = test system: Mus musculus; assay: Antihypoxic effect by the survival time (SVT) in mice at a dose of 30 mg/kg administered orally.
[16] = test system: Mus musculus; assay: Antihypoxic effect by the ratio of survival time (SVT) of test mice to that of control group at a dose of 100 mg/kg administered intraperitoneally.; conditions: route intraperitoneal
[17] = test system: Mus musculus; assay: Time of recovery of spontaneous movement (SMT) in seconds was measured after intraperitoneal administration of 30 mg/kg in mice for the promotional effect on recovery from coma.
[18] = test system: Mus musculus; assay: Time of recovery of righting reflux (RRT) in seconds was measured after administration of 100 mg/kg orally in mice for the promotional effect on recovery from coma.; conditions: route oral
[19] = test system: Mus musculus; assay: Time of recovery of righting reflux (RRT) in seconds was measured after intraperitoneal administration of 100 mg/kg in mice for the promotional effect on recovery from coma.
[20] = test system: Mus musculus; assay: Time of recovery of spontaneous movement (SMT) in seconds was measured after administration of 100 mg/kg orally in mice for the promotional effect on recovery from coma.; conditions: route oral
[21] = test system: Mus musculus; assay: Time of recovery of righting reflux (RRT) in seconds was measured after intraperitoneal administration of 30 mg/kg in mice for the promotional effect on recovery from coma.
[22] = test system: Mus musculus; assay: Time of recovery of righting reflux (RRT) in seconds was measured after intraperitoneal administration of 10 mg/kg in mice for the promotional effect on recovery from coma.
[23] = test system: Mus musculus; assay: Antihypoxic effect by the survival time (SVT) in mice at a dose of 100 mg/kg administered orally.
[24] = test system: Mus musculus; assay: Antihypoxic effect by the survival time (SVT) in mice at a dose of 30 mg/kg administered intraperitoneally.; conditions: route intraperitoneal
[25] = test system: Mus musculus; assay: Antihypoxic effect by the survival time (SVT) in mice at a dose of 10 mg/kg administered intraperitoneally.; conditions: route intraperitoneal
[26] = test system: Mus musculus; assay: Antihypoxic effect by the survival time (SVT) in mice at a dose of 100 mg/kg administered intraperitoneally.; conditions: route intraperitoneal

Cc1cc(C)c2c(c1O)C(N)C(C)(C)C2 (stereo not drawn)
RRT [1]: 66.2 s
RRT [2]: 37.2 s
RRT [3]: 62.8 s
ST [4]: 112 s and 82.1 s and 76.1 s
SVT [5]: 217%
SMT [6]: 105.8 s
RRT [7]: 54.8 s
SVT [8]: 298.2%
SMT [9]: 42 s
SVT [10]: 142.1%
SMT [11]: 92.3 s
SVT [12]: 156.2%
SVT [13]: 298.1%
SMT [14]: 62.5 s

Cc1cc(C)c2c(c1O)C(NC(=O)CN1CCN(c3cccc(Cl)c3)CC1)CC2 (stereo not drawn)
RRT [2]: 72.1 s
SVT [15]: 99.2%
SVT [16]: 168.9%
SMT [9]: 77.4 s

Cc1cc(C(C)(C)C)c(O)c(C(C)(C)C)c1 [BUTYLATED HYDROXYTOLUENE]
SMT [17]: 110.4 s and 114.7 s and 115.7 s
RRT [18]: 69.6 s
RRT [19]: 98.7 s
SMT [20]: 80.9 s
RRT [21]: 74.5 s
RRT [22]: 96.4 s
SVT [23]: 87.6%
SVT [24]: 109.4%
SVT [25]: 140.3%
SVT [26]: 358.8% and 583.9%

— ChEMBL document CHEMBL1125278, “Novel cerebroprotective agents with central nervous system stimulating activity. 2. Synthesis and pharmacology of the 1-(acylamino)-7-hydroxyindan derivatives” (1991)
